Measurements reported in ChEMBL document CHEMBL1144087, “Triterpenoid saponins from Ilex kudincha” (J Nat Prod, 1999).
The source made the active and inactive calls. The calls are words filed in the database; no cut-off is given here.

Legend:
[1] = target: T1, Sterol O-acyltransferase 1 (Homo sapiens) (UniProt P35610); assay: Inhibition of ACAT at 1 mg/mL
T1 sequence (whole entry): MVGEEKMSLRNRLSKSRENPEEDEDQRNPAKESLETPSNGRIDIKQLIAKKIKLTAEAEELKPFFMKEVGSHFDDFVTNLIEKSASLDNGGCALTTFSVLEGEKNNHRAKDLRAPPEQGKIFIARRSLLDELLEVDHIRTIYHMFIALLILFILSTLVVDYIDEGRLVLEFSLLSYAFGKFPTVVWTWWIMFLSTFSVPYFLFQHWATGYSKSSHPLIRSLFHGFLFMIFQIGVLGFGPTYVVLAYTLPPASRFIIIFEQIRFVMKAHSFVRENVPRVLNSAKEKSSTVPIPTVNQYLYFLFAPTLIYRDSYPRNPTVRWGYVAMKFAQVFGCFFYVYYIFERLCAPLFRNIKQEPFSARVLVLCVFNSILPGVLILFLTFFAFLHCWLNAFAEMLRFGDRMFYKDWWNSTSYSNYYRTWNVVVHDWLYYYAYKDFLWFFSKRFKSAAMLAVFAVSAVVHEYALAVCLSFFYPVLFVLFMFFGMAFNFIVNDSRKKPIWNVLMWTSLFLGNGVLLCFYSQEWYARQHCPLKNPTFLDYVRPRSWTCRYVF

[2] = target: T1, Sterol O-acyltransferase 1 (Homo sapiens); assay: Inhibition of ACAT at 0.2 mg/mL
[3] = target: T1, Sterol O-acyltransferase 1 (Homo sapiens); assay: Inhibition of ACAT at 0.05 mg/mL

C[C@@H]1CC[C@]2(C(=O)O[C@@H]3O[C@H](CO)[C@@H](O)[C@H](O)[C@H]3O)CC[C@]3(C)C(=CC[C@@H]4[C@@]5(C)CC[C@H](O[C@H]6O[C@@H](C(=O)O)[C@H](O)[C@@H](O)[C@@H]6O)C(C)(C)[C@@H]5CC[C@]43C)[C@@H]2[C@]1(C)O
inhibition [1]: 12.5% | Activity [2]: inactive

C[C@@H]1O[C@@H](O[C@H]2[C@H](O[C@H]3CC[C@]4(C)[C@H]5CC=C6[C@@H]7[C@H](O)C(C)(C)CC[C@]7(C(=O)O[C@@H]7O[C@H](CO)[C@@H](O)[C@H](O)[C@H]7O)CC[C@@]6(C)[C@]5(C)CC[C@H]4C3(C)C)OC[C@H](O)[C@@H]2O[C@@H]2O[C@H](CO)[C@@H](O)[C@H](O)[C@H]2O)[C@H](O)[C@H](O)[C@H]1O
inhibition [1]: 20% | Activity [2]: inactive | Activity [3]: inactive

C[C@@H]1O[C@@H](O[C@H]2[C@H](O[C@H]3CC[C@]4(C)[C@H]5CC=C6[C@H]7[C@](C(=O)O[C@@H]8O[C@H](CO)[C@@H](O)[C@H](O)[C@H]8O)(CC[C@@H](C)[C@@]7(C)O)CC[C@@]6(C)[C@]5(C)CC[C@H]4C3(C)C)OC[C@H](O)[C@@H]2O[C@@H]2O[C@H](CO)[C@@H](O)[C@H](O)[C@H]2O)[C@H](O)[C@H](O)[C@H]1O
inhibition [1]: 31.8% | inhibition [2]: 10.3% | inhibition [3]: 10.9%

C[C@@H]1O[C@@H](O[C@H]2[C@H](O[C@H]3CC[C@]4(C)[C@H]5[C@@H](O)CC6=C7[C@]8(CC[C@](C)(OC8=O)[C@@]7(C)O)CC[C@@]6(C)[C@]5(C)CC[C@H]4C3(C)C)OC[C@H](O)[C@@H]2O[C@@H]2O[C@H](CO)[C@@H](O)[C@H](O)[C@H]2O[C@@H]2O[C@H](CO)[C@@H](O)[C@H](O)[C@H]2O)[C@H](O)[C@H](O)[C@H]1O
Activity [1]: inactive | Activity [2]: inactive | Activity [3]: inactive

C[C@H]1[C@H](C)CC[C@]2(C(=O)O[C@@H]3O[C@H](CO)[C@@H](O)[C@H](O)[C@H]3O)CC[C@]3(C)C(=CC[C@@H]4[C@@]5(C)CC[C@H](O[C@H]6O[C@@H](C(=O)O)[C@H](O)[C@@H](O)[C@@H]6O)[C@@](C)(CO)[C@@H]5CC[C@]43C)[C@H]12
inhibition [1]: 63.9% | inhibition [2]: 29%

C[C@@H]1CC[C@]2(C(=O)O[C@@H]3O[C@H](CO)[C@@H](O)[C@H](O)[C@H]3O)CC[C@]3(C)C(=CC[C@@H]4[C@@]5(C)CC[C@H](O[C@@H]6OC[C@H](O)[C@H](O)[C@H]6O)[C@@](C)(CO)[C@@H]5CC[C@]43C)[C@@H]2[C@]1(C)O
inhibition [1]: 18.9% | Activity [2]: inactive | Activity [3]: inactive

C[C@@H]1O[C@@H](O[C@H]2[C@H](O[C@H]3CC[C@]4(C)[C@H]5CC=C6[C@H]7[C@](C(=O)O[C@@H]8O[C@H](CO)[C@@H](O)[C@H](O)[C@H]8O)(CC[C@@H](C)[C@@]7(C)O)CC[C@@]6(C)[C@]5(C)CC[C@H]4C3(C)C)OC[C@H](O)[C@@H]2O)[C@H](O)[C@H](O)[C@H]1O
inhibition [1]: 72.8% | Activity [2]: inactive | Activity [3]: inactive

CC1(C)[C@@H](O[C@@H]2O[C@H](CO)[C@@H](O)[C@H](O)[C@H]2O[C@@H]2O[C@H](CO)[C@@H](O)[C@H](O)[C@H]2O)CC[C@]2(C)[C@H]3C[C@@H](O)C4=C5[C@]6(CC[C@](C)(OC6=O)[C@@]5(C)O)CC[C@@]4(C)[C@]3(C)CC[C@@H]12
inhibition [1]: 43% | Activity [2]: inactive | Activity [3]: inactive

CC1(C)CC[C@]2(C(=O)O[C@@H]3O[C@H](CO)[C@@H](O)[C@H](O)[C@H]3O)CC[C@]3(C)C(=CC[C@@H]4[C@@]5(C)CC[C@H](O[C@H]6O[C@@H](C(=O)O)[C@H](O)[C@@H](O)[C@@H]6O)[C@@](C)(CO)[C@@H]5CC[C@]43C)[C@@H]2C1
inhibition [1]: 64.3% | inhibition [2]: 36.5% | inhibition [3]: 15.7%

C[C@@H]1O[C@@H](O[C@H]2[C@H](O[C@H]3CC[C@]4(C)[C@H]5CC=C6[C@H]7[C@]8(CC[C@](C)(OC8=O)[C@@]7(C)O)CC[C@@]6(C)[C@]5(C)CC[C@H]4C3(C)C)OC[C@H](O)[C@@H]2O[C@@H]2O[C@H](CO)[C@@H](O)[C@H](O)[C@H]2O[C@@H]2O[C@H](CO)[C@@H](O)[C@H](O)[C@H]2O)[C@H](O)[C@H](O)[C@H]1O
Activity [1]: inactive | Activity [2]: inactive | Activity [3]: inactive

C[C@@H]1O[C@@H](O[C@H]2[C@H](OC(=O)[C@]34CC[C@@H](C)[C@@](C)(O)[C@H]3C3=CC[C@@H]5[C@@]6(C)CC[C@H](O[C@@H]7OC[C@H](O)[C@H](O[C@@H]8O[C@H](CO)[C@@H](O)[C@H](O)[C@H]8O)[C@H]7O[C@@H]7O[C@@H](C)[C@H](O)[C@@H](O)[C@H]7O)C(C)(C)[C@@H]6CC[C@@]5(C)[C@]3(C)CC4)O[C@H](CO)[C@@H](O)[C@@H]2O)[C@H](O)[C@H](O)[C@H]1O
Activity [1]: inactive | inhibition [2]: 10.6% | Activity [3]: inactive

C[C@@H]1O[C@@H](O[C@H]2[C@H](O[C@H]3CC[C@]4(C)[C@H]5CC=C6[C@@H]7CC(C)(C)CC[C@]7(C(=O)O[C@@H]7O[C@H](CO)[C@@H](O)[C@H](O)[C@H]7O)CC[C@@]6(C)[C@]5(C)CC[C@H]4C3(C)C)OC[C@H](O)[C@@H]2O[C@@H]2O[C@H](CO)[C@@H](O)[C@H](O)[C@H]2O)[C@H](O)[C@H](O)[C@H]1O
inhibition [1]: 25.4% | Activity [2]: inactive | inhibition [3]: 31.7%

CC1(C)[C@@H](O[C@@H]2OC[C@H](O)[C@H](O)[C@H]2O[C@@H]2O[C@H](CO)[C@@H](O)[C@H](O)[C@H]2O)CC[C@]2(C)[C@H]3C[C@@H](O)C4=C5[C@]6(CC[C@](C)(OC6=O)[C@@]5(C)O)CC[C@@]4(C)[C@]3(C)CC[C@@H]12
inhibition [1]: 24.1% | Activity [2]: inactive

C[C@H]1[C@H](C)CC[C@]2(C(=O)O[C@@H]3O[C@H](CO)[C@@H](O)[C@H](O)[C@H]3O)CC[C@]3(C)C(=CC[C@@H]4[C@@]5(C)C[C@@H](O)[C@H](O[C@@H]6OC[C@H](O)[C@H](O)[C@H]6O)[C@@](C)(CO)[C@@H]5CC[C@]43C)[C@H]12
inhibition [1]: 35.5% | Activity [2]: inactive | Activity [3]: inactive

C[C@@H]1CC[C@]2(C(=O)O[C@@H]3O[C@H](CO)[C@@H](O)[C@H](O)[C@H]3O)CC[C@]3(C)C(=CC[C@@H]4[C@@]5(C)CC[C@H](O[C@@H]6OC[C@H](O)[C@H](O[C@@H]7O[C@H](CO)[C@@H](O)[C@H](O)[C@H]7O)[C@H]6O)C(C)(C)[C@@H]5CC[C@]43C)[C@@H]2[C@]1(C)O
Activity [1]: inactive | Activity [2]: inactive

C[C@@H]1O[C@@H](O[C@H]2[C@H](OC(=O)[C@]34CCC(C)(C)[C@@H](O)[C@H]3C3=CC[C@@H]5[C@@]6(C)CC[C@H](O[C@@H]7OC[C@H](O)[C@H](O[C@@H]8O[C@H](CO)[C@@H](O)[C@H](O)[C@H]8O)[C@H]7O[C@@H]7O[C@@H](C)[C@H](O)[C@@H](O)[C@H]7O)C(C)(C)[C@@H]6CC[C@@]5(C)[C@]3(C)CC4)O[C@H](CO)[C@@H](O)[C@@H]2O)[C@H](O)[C@H](O)[C@H]1O
Activity [1]: inactive | Activity [2]: inactive | Activity [3]: inactive

C=C1CC[C@]2(C(=O)O[C@@H]3O[C@H](CO)[C@@H](O)[C@H](O)[C@H]3O[C@@H]3O[C@@H](C)[C@H](O)[C@@H](O)[C@H]3O)CC[C@]3(C)C(=CC[C@@H]4[C@@]5(C)CC[C@H](O[C@@H]6OC[C@H](O)[C@H](O[C@@H]7O[C@H](CO)[C@@H](O)[C@H](O)[C@H]7O[C@@H]7O[C@H](CO)[C@@H](O)[C@H](O)[C@H]7O)[C@H]6O[C@@H]6O[C@@H](C)[C@H](O)[C@@H](O)[C@H]6O)C(C)(C)[C@@H]5CC[C@]43C)[C@@H]2[C@]1(C)O
inhibition [1]: 60% | Activity [2]: inactive
